Among the data in patent publication US9617240B2 (TEIJIN PHARMA LIMITED, priority 2013, dated 2017) are IC50 values, retold here.

Each structure is given as a SMILES string. pIC50: −log10 of the molar value. Bounds are passed on as bounds.

T1 sequence (P80457 whole entry): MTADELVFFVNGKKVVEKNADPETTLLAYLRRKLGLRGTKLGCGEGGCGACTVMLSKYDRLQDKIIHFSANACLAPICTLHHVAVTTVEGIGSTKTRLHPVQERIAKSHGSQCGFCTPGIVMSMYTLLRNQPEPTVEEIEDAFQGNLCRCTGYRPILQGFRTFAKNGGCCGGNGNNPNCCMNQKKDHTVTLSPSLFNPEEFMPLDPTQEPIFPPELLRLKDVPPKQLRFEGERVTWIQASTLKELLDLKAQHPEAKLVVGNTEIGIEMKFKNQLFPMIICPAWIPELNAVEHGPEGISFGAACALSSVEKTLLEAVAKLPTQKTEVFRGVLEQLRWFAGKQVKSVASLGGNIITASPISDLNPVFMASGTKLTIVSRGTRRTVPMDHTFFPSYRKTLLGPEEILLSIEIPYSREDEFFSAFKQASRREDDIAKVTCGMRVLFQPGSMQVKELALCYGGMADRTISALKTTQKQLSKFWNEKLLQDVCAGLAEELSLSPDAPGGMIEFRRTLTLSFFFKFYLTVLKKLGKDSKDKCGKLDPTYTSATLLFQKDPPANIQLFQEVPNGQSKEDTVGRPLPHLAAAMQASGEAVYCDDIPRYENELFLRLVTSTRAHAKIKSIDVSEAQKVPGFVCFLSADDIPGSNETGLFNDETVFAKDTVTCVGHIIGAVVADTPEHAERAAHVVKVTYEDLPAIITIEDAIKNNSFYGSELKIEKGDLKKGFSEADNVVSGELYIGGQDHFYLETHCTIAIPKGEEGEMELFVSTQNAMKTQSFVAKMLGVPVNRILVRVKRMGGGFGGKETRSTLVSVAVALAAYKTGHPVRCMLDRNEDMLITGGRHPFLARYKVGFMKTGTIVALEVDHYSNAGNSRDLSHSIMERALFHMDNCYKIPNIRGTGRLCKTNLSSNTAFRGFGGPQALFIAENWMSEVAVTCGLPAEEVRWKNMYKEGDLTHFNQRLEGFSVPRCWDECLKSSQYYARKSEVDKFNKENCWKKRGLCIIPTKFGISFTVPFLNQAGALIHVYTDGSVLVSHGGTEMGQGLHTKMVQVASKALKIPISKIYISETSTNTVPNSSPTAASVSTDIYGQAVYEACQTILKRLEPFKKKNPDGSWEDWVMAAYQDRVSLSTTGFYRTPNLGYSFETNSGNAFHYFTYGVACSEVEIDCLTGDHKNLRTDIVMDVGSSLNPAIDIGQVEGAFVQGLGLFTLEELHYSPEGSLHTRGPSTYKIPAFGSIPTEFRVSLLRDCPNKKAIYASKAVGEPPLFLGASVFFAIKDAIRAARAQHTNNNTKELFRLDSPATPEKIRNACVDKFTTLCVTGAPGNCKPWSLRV

This assay concerns the target T1, oxidase type xanthine oxidase (derived from buttermilk) (Bos taurus, UniProt P80457).
T1 construct: oxidase type xanthine oxidase (derived from buttermilk, supplied by Calbiochem Novabiochem Corp.); purchased Calbiochem Novabiochem Corp; host or cells: buttermilk (natural source)
Put plainly: Xanthine oxidase inhibitory activity (absorbance change at 290 nm). It counts as biochemical. The note with it: xanthine substrate, 100 mM phosphate buffer, absorbance at 290 nm for 5 minutes; read-out: Inhibitory Activity (50% inhibitory concentration with respect to oxidase type xanthine oxidase). Here is the method: The xanthine oxidase inhibitory activity was measured for the compounds synthesized according to the above Examples.
After a test compound was dissolved in DMSO (manufactured by Sigma Co.) so that the concentration is 20 mM, the test compound was prepared and used at a desired concentration at the time of use.
The evaluation of the xanthine oxidase inhibitory activity of the compounds of the present invention was conducted by partially modifying the method described in the literature (Method Enzymatic Analysis, 1, 521-522, 1974). The present evaluation is based on the oxidase type xanthine oxidase inhibitory activity evaluation. That is, a xanthine (manufactured by Sigma Co.) solution prepared at 10 mM in advance using a 20 mM sodium hydroxide solution was adjusted to 30 μM using a 100 mM phosphate buffer solution, and 75 μL/well of each solution was added into a 96-well plate. Aliquots (1.5 μL/well) of each test sample, which was diluted with DMSO so that the concentration is 100 times the final concentration, were added into a 96-well plate, and after mixing, the absorbance at 290 nm was measured by a microplate reader SPECTRA MAX Plus 384 (manufactured by Molecular Devices, LLC). Subsequently, oxidase type xanthine oxidase (derived from buttermilk, supplied by Calbiochem Novabiochem Corp.) was prepared at 30.6 mU/mL using a 100 mM phosphate buffer solution and 73.5 μL/well of each solution was added. Immediately after mixing, the change in absorbance at 290 nm was measured for 5 minutes. The enzyme activity when DMSO was used instead of a test compound solution was defined as 100%, the inhibitory rate of the test compounds was calculated and the 50% inhibitory concentration with respect to oxidase type xanthine oxidase was calculated by fitting to the dose-response curve.
Note that the symbols (+, ++, +++) in the table represent inhibitory activity values as shown below.
Take `COc1cccc(F)c1-c1cnc(-n2cc(C(=O)O)cn2)cc1C#N` [Compound 18, 1-[4-cyano-5-(2-fluoro-6-methoxyphenyl)pyridin-2-yl]-1H-pyrazole-4-carboxylic acid]: the pIC50 is 8.00 to 8.30.
For `COc1cccc(-c2cnc(-n3cc(C(=O)O)cn3)cc2C#N)c1F` [Compound 19, 1-[4-cyano-5-(2-fluoro-3-methoxyphenyl)pyridin-2-yl]-1H-pyrazole-4-carboxylic acid] the value was 8.30 to 9.00.
For `N#Cc1cc(-n2cc(C(=O)O)cn2)ncc1-c1cccc(F)c1F` [Compound 20, 1-[4-cyano-5-(2,3-difluorophenyl)pyridin-2-yl]-1H-pyrazole-4-carboxylic acid] the value was 8.30 to 9.00.
As to `N#Cc1cc(-n2cc(C(=O)O)cn2)ncc1-c1ccsc1` [Compound 21, 1-[4-cyano-5-(thiophen-3-yl)pyridin-2-yl]-1H-pyrazole-4-carboxylic acid], the pIC50 was 8.30 to 9.00.
For the molecule `Cc1ccsc1-c1cnc(-n2cc(C(=O)O)cn2)cc1C#N` [Compound 22, 1-[4-cyano-5-(3-methylthiophen-2-yl)pyridin-2-yl]-1H-pyrazole-4-carboxylic acid], the pIC50 is 8.30 to 9.00.
In the case of `N#Cc1cc(-n2cc(C(=O)O)cn2)ncc1-c1ccoc1` [Compound 23, 1-[4-cyano-5-(furan-3-yl)pyridin-2-yl]-1H-pyrazole-4-carboxylic acid] it was 8.00 to 8.30.
Turning to `COc1cnccc1-c1cnc(-n2cc(C(=O)O)cn2)cc1C#N` [Compound 24, 1-[4-cyano-5-(3-methoxypyridin-4-yl)pyridin-2-yl]-1H-pyrazole-4-carboxylic acid], the pIC50 was no more than 8.00.
For `N#Cc1cc(-n2cc(C(=O)O)cn2)ncc1-c1cccnc1` [Compound 25, 1-[4-cyano-5-(pyridin-3-yl)pyridin-2-yl]-1H-pyrazole-4-carboxylic acid] the value was no more than 8.00; for `Cc1nn(-c2cc(C#N)c(-c3ccccc3)cn2)cc1C(=O)O` [Compound 26, 1-(4-cyano-5-phenylpyridin-2-yl)-3-methyl-1H-pyrazole-4-carboxylic acid], no more than 8.00.
For the molecule `CC(C)c1nn(-c2cc(C#N)c(-c3ccccc3)cn2)cc1C(=O)O` [Compound 27, 1-(4-cyano-5-phenylpyridin-2-yl)-3-(propan-2-yl)-1H-pyrazole-4-carboxylic acid], the pIC50 was no more than 8.00.
In the case of `Cc1nn(-c2cc(C#N)c(-c3ccccc3)cn2)c(C)c1C(=O)O` [Compound 28, 1-(4-cyano-5-phenylpyridin-2-yl)-3,5-dimethyl-1H-pyrazole-4-carboxylic acid] it was no more than 8.00.
In the case of `N#Cc1cc(-n2cc(C(=O)O)cn2)ncc1-c1ccc(F)cc1` [Compound 29, 1-[4-cyano-5-(4-fluorophenyl)pyridin-2-yl]-1H-pyrazole-4-carboxylic acid] it was 8.30 to 9.00.
In the case of `CCOc1cccc(-c2cnc(-n3cc(C(=O)O)cn3)cc2C#N)c1` [Compound 30, 1-[4-cyano-5-(3-ethoxyphenyl)pyridin-2-yl]-1H-pyrazole-4-carboxylic acid] it was 8.30 to 9.00; in that of `CCCOc1cccc(-c2cnc(-n3cc(C(=O)O)cn3)cc2C#N)c1` [Compound 31, 1-[4-cyano-5-(3-propoxyphenyl)pyridin-2-yl]-1H-pyrazole-4-carboxylic acid], 8.30 to 9.00.
With `N#Cc1cc(-n2cc(C(=O)O)cn2)ncc1-c1ccc(F)cc1F` [Compound 32, 1-[4-cyano-5-(2,4-difluorophenyl)pyridin-2-yl]-1H-pyrazole-4-carboxylic acid], the pIC50 is 8.30 to 9.00.
In the case of `Cc1ccc(-c2cnc(-n3cc(C(=O)O)cn3)cc2C#N)c(F)c1` [Compound 33, 1-[4-cyano-5-(2-fluoro-4-methylphenyl)pyridin-2-yl]-1H-pyrazole-4-carboxylic acid] it was 8.30 to 9.00; in that of `Cc1ccc(F)c(-c2cnc(-n3cc(C(=O)O)cn3)cc2C#N)c1` [Compound 34, 1-[4-cyano-5-(2-fluoro-5-methylphenyl)pyridin-2-yl]-1H-pyrazole-4-carboxylic acid], 8.30 to 9.00.
For `N#Cc1cc(-n2cc(C(=O)O)cn2)ncc1-c1cc(F)ccc1F` [Compound 35, 1-[4-cyano-5-(2,5-difluorophenyl)pyridin-2-yl]-1H-pyrazole-4-carboxylic acid] the value was 8.30 to 9.00; for `Cc1cccc(-c2cnc(-n3cc(C(=O)O)cn3)cc2C#N)c1F` [Compound 36, 1-[4-cyano-5-(2-fluoro-3-methylphenyl)pyridin-2-yl]-1H-pyrazole-4-carboxylic acid], 8.30 to 9.00; for `Cc1cc(-c2cnc(-n3cc(C(=O)O)cn3)cc2C#N)ccc1F` [Compound 37, 1-[4-cyano-5-(4-fluoro-3-methylphenyl)pyridin-2-yl]-1H-pyrazole-4-carboxylic acid], 8.30 to 9.00.
For `Cc1cccc(-c2cnc(-n3cc(C(=O)O)cn3)cc2C#N)c1C` [Compound 38, 1-[4-cyano-5-(2,3-dimethylphenyl)pyridin-2-yl]-1H-pyrazole-4-carboxylic acid] the value was 8.30 to 9.00; for `Cc1ccc(-c2cnc(-n3cc(C(=O)O)cn3)cc2C#N)cc1F` [Compound 39, 1-[4-cyano-5-(3-fluoro-4-methylphenyl)pyridin-2-yl]-1H-pyrazole-4-carboxylic acid], 8.30 to 9.00.
With `N#Cc1cc(-n2cc(C(=O)O)cn2)ncc1-c1ccc(F)c(Cl)c1` [Compound 40, 1-[4-cyano-5-(3-chloro-4-fluorophenyl)pyridin-2-yl]-1H-pyrazole-4-carboxylic acid], the pIC50 was 8.00 to 8.30.
`N#Cc1cc(-n2cc(C(=O)O)cn2)ncc1-c1cccc(Cl)c1F` [Compound 41, 1-[4-cyano-5-(3-chloro-2-fluorophenyl)pyridin-2-yl]-1H-pyrazole-4-carboxylic acid]: the pIC50 was 8.30 to 9.00.
Regarding `N#Cc1cc(-n2cc(C(=O)O)cn2)ncc1-c1ccc(C(=O)O)cc1` [Compound 42, 1-[5-(4-carboxyphenyl)-4-cyanopyridin-2-yl]-1H-pyrazole-4-carboxylic acid], the pIC50 was 8.30 to 9.00.
On to `N#Cc1cc(-n2cc(C(=O)O)cn2)ncc1-c1ccc(C(F)(F)F)cc1` [Compound 43, 1-{4-cyano-5-[4-(trifluoromethyl)phenyl]pyridin-2-yl}-1H-pyrazole-4-carboxylic acid], for which the pIC50 is 8.30 to 9.00.
In the case of `N#Cc1cc(-n2cc(C(=O)O)cn2)ncc1-c1ccc(OC(F)(F)F)cc1` [Compound 44, 1-{4-cyano-5-[4-(trifluoromethoxy)phenyl]pyridin-2-yl}-1H-pyrazole-4-carboxylic acid] it was 8.30 to 9.00; in that of `N#Cc1cc(-n2cc(C(=O)O)cn2)ncc1-c1cccc(C(F)(F)F)c1` [Compound 45, 1-{4-cyano-5-[3-(trifluoromethyl)phenyl]pyridin-2-yl}-1H-pyrazole-4-carboxylic acid], 8.00 to 8.30.
Turning to `N#Cc1cc(-n2cc(C(=O)O)cn2)ncc1-c1cccc(OC(F)F)c1` [Compound 46, 1-{4-cyano-5-[3-(difluoromethoxy)phenyl]pyridin-2-yl}-1H-pyrazole-4-carboxylic acid], the pIC50 is 8.00 to 8.30.
For `CC(C)c1ccc(-c2cnc(-n3cc(C(=O)O)cn3)cc2C#N)cc1` [Compound 47, 1-[4-cyano-5-[4-(propane-2-yl)phenyl]pyridin-2-yl}-1H-pyrazole-4-carboxylic acid] the value was 8.30 to 9.00.
